Laboratory results taken from US5817667A, “Compounds and methods for the treatment of cancer” (University of Georgia Research Foudation, priority 1994, dated 1998).

Assays:
[1] = tested on: PC-3; assay: NCI cancer screening, growth inhibition (SRB); format: cell-based; details: Prostate Cancer, 48 hours exposure
[2] = tested on: HOP-62; assay: NCI cancer screening, growth inhibition (SRB); format: cell-based; details: Non-Small Cell Lung Cancer, 48 hours exposure
[3] = tested on: MDA-MB-231/ATCC; assay: cells; details: Homo sapiens, MDA-MB-231, 48 h, read-out: Log10 GI50 (converted)
[4] = tested on: SK-OV-3; assay: NCI cancer screening, growth inhibition (SRB); format: cell-based; details: Homo sapiens, SK-OV-3, 48 h, read-out: Log10 GI50 (converted)
[5] = tested on: RXF-393; assay: NCI cancer screening, growth inhibition (SRB); format: cell-based; details: Renal Cancer, 48 hours exposure
[6] = tested on: A549/ATCC; assay: NCI cancer screening, growth inhibition (SRB); format: cell-based; details: Non-Small Cell Lung Cancer, 48 hours exposure
[7] = tested on: BT-549; assay: NCI cancer screening, growth inhibition (SRB); format: cell-based; details: Breast Cancer, 48 hours exposure
[8] = tested on: OVCAR-4; assay: NCI cancer screening, growth inhibition (SRB); format: cell-based
[9] = tested on: SK-MEL-5; assay: NCI cancer screening, growth inhibition (SRB); format: cell-based; details: Melanoma, 48 hours exposure
[10] = tested on: NCI-H322M; assay: cells; details: Homo sapiens, 48 h, read-out: Log10 GI50 (converted)
[11] = tested on: SK-MEL-28; assay: NCI cancer screening, growth inhibition (SRB); format: cell-based; details: Melanoma, 48 hours exposure
[12] = tested on: COLO205; assay: NCI cancer screening, growth inhibition (SRB); format: cell-based; details: Homo sapiens, COLO 205, 48 h, read-out: Log10 GI50 (converted)
[13] = tested on: Colon 38 tumor cells; assay: In vivo treatment of Colon 38 tumor cells implanted sc in BDF1 mice; details: 25 mg/kg/dose twice daily for five days, FIG. 2
Source text: The graph plots tumor growth as a percentage of original tumor weight vs. days. Treatment of the mice occurred in days 1, 2, 3, 4 and 5.
Colon 38 tumor cells were implanted sc to BDF1 mice.

[14] = tested on: SR; assay: NCI cancer screening, growth inhibition (SRB); format: cell-based; details: Leukemia, 48 hours exposure
[15] = tested on: HCT-116; assay: NCI cancer screening, growth inhibition (SRB); format: cell-based; details: Colon Cancer, 48 hours exposure
[16] = tested on: 785-4; assay: NCI cancer screening, growth inhibition (SRB); format: cell-based; details: Renal Cancer, 48 hours exposure
[17] = tested on: U251; assay: NCI cancer screening, growth inhibition (SRB); format: cell-based; details: CNS Cancer, 48 hours exposure
[18] = tested on: RL-60(TB); assay: NCI cancer screening, growth inhibition (SRB); format: cell-based; details: Leukemia, 48 hours exposure
[19] = tested on: MDA-MB-231/ATCC; details: Breast Cancer; 48 hours exposure
[20] = tested on: T-47D; assay: NCI cancer screening, growth inhibition (SRB); format: cell-based
[21] = tested on: K-562; assay: NCI cancer screening, growth inhibition (SRB); format: cell-based; details: Leukemia, 48 hours exposure
[22] = tested on: OVCAR-5; assay: NCI cancer screening, growth inhibition (SRB); format: cell-based; details: Ovarian Cancer, 48 hours exposure
[23] = tested on: M14; assay: NCI cancer screening, growth inhibition (SRB); format: cell-based; details: Melanoma, 48 hours exposure
[24] = tested on: HT29; assay: NCI cancer screening, growth inhibition (SRB); format: cell-based
[25] = tested on: ACHN; assay: NCI cancer screening, growth inhibition (SRB); format: cell-based; details: Renal Cancer, 48 hours exposure
[26] = tested on: DU-145; assay: NCI cancer screening, growth inhibition (SRB); format: cell-based; details: Prostate Cancer; 48 hours exposure
[27] = tested on: UO-31; assay: NCI cancer screening, growth inhibition (SRB); format: cell-based; details: Renal Cancer, 48 hours exposure
[28] = tested on: NCI-H522; assay: NCI cancer screening, growth inhibition (SRB); format: cell-based; details: Non-Small Cell Lung Cancer, 48 hours exposure
[29] = tested on: SP-295; assay: NCI cancer screening, growth inhibition (SRB); format: cell-based; details: CNS Cancer, 48 hours exposure
[30] = tested on: MDA-N; assay: NCI cancer screening, growth inhibition (SRB); format: cell-based; details: Breast Cancer, 48 hours exposure
[31] = tested on: MCF7; assay: NCI cancer screening, growth inhibition (SRB); format: cell-based; details: Breast Cancer, 48 hours exposure
[32] = tested on: TK-30; assay: NCI cancer screening, growth inhibition (SRB); format: cell-based
[33] = read-out: Log10 GI50 (converted)

## Nc1ccn([C@@H]2CO[C@H](CO)O2)c(=O)n1 [(-)-OddC, (-)-(2S,4S)-1-(2-hydroxymethyl-1,3-dioxolan-4-yl)cytosine]
[1]; Homo sapiens, PC-3, read-out: Log10 GI50 (converted)
  GI50: 0.513 µM
[1]
  Log10 TGI: > -4.00
[2]; Homo sapiens, HOP-62, read-out: Log10 GI50 (converted)
  GI50: 0.589 µM
[2]
  Log10 TGI: -4.71
[3]
  GI50: > 100 µM
[4]
  GI50: 4.47 µM
[5]; Homo sapiens, RXF 393, read-out: Log10 GI50 (converted)
  GI50: 0.676 µM
[5]
  Log10 TGI: > -4.00
[6]; Homo sapiens, A549, read-out: Log10 GI50 (converted)
  GI50: 0.977 µM
[6]
  Log10 TGI: > -4.00
[7]
  Log10 TGI: > -4.00
[7]; Homo sapiens, BT-549, read-out: Log10 GI50 (converted)
  GI50: 25.7 µM
[8]; Homo sapiens, OVCAR-4, 48 h, read-out: Log10 GI50 (converted)
  GI50: > 100 µM
[8]; Ovarian Cancer, 48 hours exposure
  Log10 TGI: > -4.00
[9]; Homo sapiens, SK-MEL-5, read-out: Log10 GI50 (converted)
  GI50: 12.3 µM
[9]
  Log10 TGI: > -4.00
[10]
  GI50: > 100 µM
[11]; Homo sapiens, SK-MEL-28, read-out: Log10 GI50 (converted)
  GI50: 49 µM
[11]
  Log10 TGI: > -4.00
[12]
  GI50: 93.3 µM
[13]
  colon tumor cell growth: retarded
[14]; Homo sapiens, SR, read-out: Log10 GI50 (converted)
  GI50: 1.12 µM
[14]
  Log10 TGI: > -4.00
[15]
  Log10 TGI: > -4.00
[15]; Homo sapiens, HCT-116, read-out: Log10 GI50 (converted)
  GI50: 5.89 µM
[16]
  Log10 TGI: > -4.00
[16]; [33]
  GI50: 4.37 µM
[17]
  Log10 TGI: > -4.00
[17]; Homo sapiens, U-251, read-out: Log10 GI50 (converted)
  GI50: 12.3 µM
[18]
  Log10 TGI: > -4.00
[18]; [33]
  GI50: 0.525 µM
[19]
  Log10 TGI: > -4.00
[20]; Breast Cancer, 48 hours exposure
  Log10 TGI: > -4.00
[20]; Homo sapiens, T47D, 48 h, read-out: Log10 GI50 (converted)
  GI50: > 100 µM
[21]; Homo sapiens, K562, read-out: Log10 GI50 (converted)
  GI50: 25.7 µM
[21]
  Log10 TGI: > -4.00
[22]; Homo sapiens, OVCAR-5, read-out: Log10 GI50 (converted)
  GI50: 38.9 µM
[22]
  Log10 TGI: > -4.00
[23]; Homo sapiens, M14, read-out: Log10 GI50 (converted)
  GI50: 0.537 µM
[23]
  Log10 TGI: -5.07
[24]; Colon Cancer, 48 hours exposure
  Log10 TGI: > -4.00
[24]; Homo sapiens, HT-29, 48 h, read-out: Log10 GI50 (converted)
  GI50: > 100 µM
[25]; Homo sapiens, ACHN, read-out: Log10 GI50 (converted)
  GI50: 0.347 µM
[25]
  Log10 TGI: > -4.00
[26]
  Log10 TGI: > -4.00
[27]; Homo sapiens, UO-31, read-out: Log10 GI50 (converted)
  GI50: 2.51 µM
[27]
  Log10 TGI: > -4.00
[28]; Homo sapiens, NCI-H522, read-out: Log10 GI50 (converted)
  GI50: 0.871 µM
[28]
  Log10 TGI: > -4.00
[29]
  Log10 TGI: > -4.00
[29]; [33]
  GI50: 0.575 µM
[30]
  Log10 TGI: > -4.00
[30]; Homo sapiens, MDA-N, read-out: Log10 GI50 (converted)
  GI50: 46.8 µM
[31]
  Log10 TGI: > -4.00
[31]; Homo sapiens, MCF7, read-out: Log10 GI50 (converted)
  GI50: 1.12 µM
[32]; 48 h, read-out: Log10 GI50 (converted)
  GI50: > 100 µM
[32]; Renal Cancer, 48 hours exposure
  Log10 TGI: > -4.00
